Laboratory results as given in patent publication US20240409536A1, “COMPOUNDS AND METHODS FOR MODULATING SPLICING” (REMIX THERAPEUTICS INC., priority 2021, published 2024).

Key:
[1] = test system: HTT mRNA; test: Splicing RT-qPCR assay, HTT canonical (CJ) and alternative (AJ) junction mRNA; type: cell-based; conditions: Homo sapiens, A673 or K562 cells, 24 hours; for IC50: decrease in canonical junction mRNA; for AC50: increase in alternative junction mRNA
Method in brief: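 Housekeeping-normalized RT-qPCR of canonical and alternative junctions in lysates of A673 or K562 cells exposed 24 h to compound (11 points, 3-fold steps, max 10 uM).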

[2] = test system: HiBiT-tagged HTT protein; test: HiBiT protein abundance assay, HTT (K562 HiBiT knock-in cells); type: cell-based, human; conditions: 24 hours
Procedure: Compounds described herein were used to screen for effects on quantitative protein abundance using a HiBit assay system (Promega). Quantitative protein abundance was determined by measuring the protein levels of HiBit-tagged protein targets expressed in cell culture via luminescence using the Nano-Glo HiBiT Lytic Detection System, which uses a split complementation assay format to reconstitute NanoBiT enzyme to generate a luminescent signal. A protein abundance assay was developed such that endogenous protein targets could be modified with the HiBiT peptide tag and their abundance could be assessed after compound treatment. Briefly, K562 cell lines containing a HiBiT-modification were treated with various compounds described herein (e.g., compounds of Formulas (I), (II), or (III)). After treatment for 24 hours, the protein abundance of a specific target was determined by measuring luminescence.
• Promega Nano-Glo HiBiT Lytic Detection System (cat #N3030) • Corning 384-well TC-treated microplates (cat #3570) • Synthego Engineered Cells Knock-In Clones
Cells were maintained in IMDM with 10% FBS. Before the assay, cells were diluted with […] growth media (IMDM+1% FBS media) and were seeded in a 384-well plate at a density of 10000 cells/well (for each cell line listed in Table 6). Each compound was prepared as a 10-point 3-fold serial dilution in DMSO with the top dose at a final concentration of 10 μM in the well. Unmodified K562 cells were added at the previously specified density with DMSO to serve as an assay baseline and positive control (PC) and DMSO only with the respective modified cell lines was added to the negative control (NC) columns. Final DMSO concentration was kept at or below 0.25%. Treated cell plates were placed in an incubator at 37° C. with 5% CO2 for 24 hours. After 24 hours, 25 μL of Complete HiBit Lytic reagent was added to each well at room temperature (e.g. one plate requiring 10 mL Lytic Buffer, 100 μL LgBiT Protein, 200 μL Lytic Substrate), shaken for 5 minutes at 600 RPM, then left to sit for 10 minutes for signal to stabilize before reading on a Spark Cyto plate reader (Tecan) with a 500 ms measurement time.
To determine compound effects on protein abundance of each target in Table 6, the percent response for each respective cell line was calculated at each compound concentration as follows:
For the normalized response at each concentration, a four-parameter logistical regression was fit to the data and the response was interpolated at the 50% value to determine a concentration for protein abundance at 50% (IC50) the untreated control.

[3] = test system: K562 cells; test: Cell Titer Glo 2.0 cell viability assay in K562 cells; conditions: 72 hours

SMILES	IC50 [1] [nM]	AC50 [1] [nM]	IC50 [2] [nM]	Viability [3]
Cc1cn2cc(NC(=O)c3ccc([C@@]45CCNCC4C5)c4nccnc34)cc(F)c2n1 (stereo in doubt) [Compound 248, 8-{3-azabicyclo[4.1.0]heptan-6-yl}-N-{8-fluoro-2-methylimidazo[1,2-a]pyridin-6-yl}quinoxaline-5-carboxamide 2,2,2-trifluoroacetate]	1000 to 10000	> 10000	1000 to 10000	B (B represents 100-1000 nM)
Cc1cn2cc(NC(=O)c3ccc(N4CCNCC4)c4nccnc34)cc(F)c2n1 [Compound 111]	1000 to 10000	1000 to 10000	100 to 1000	B (B represents 100-1000 nM)
Cc1cn2nc(NC(=O)c3ccc(C4CCNCC4)c4ccnnc34)cc(C)c2n1 [Compound 113]	1000 to 10000	1000 to 10000	1000 to 10000	
Cn1cc2ccc(NC(=O)c3ccc(N4CCNCC4)c4ccnnc34)cc2n1 [Compound 115]	> 10000	> 10000	> 10000	D (D represents greater than 10 μM in K562 cells)
Cn1cc2c(F)cc(NC(=O)c3ccc(N4CCNCC4)c4ccnnc34)cc2n1 [Compound 116]	> 10000	> 10000	> 10000	C (C represents 1000-9999 nM)
Cc1nc2c(F)cc(NC(=O)c3ccc(N4CCNCC4)c4ccnnc34)cc2s1 [Compound 118]	100 to 1000	100 to 1000	100 to 1000	A (A represents <100 nM)
Cc1cn2cc(NC(=O)c3ccc(N4CCNCC4)c4ccnnc34)c(C)cc2n1 [Compound 119]	1000 to 10000	1000 to 10000	1000 to 10000	B (B represents 100-1000 nM)
Cc1cn2cc(NC(=O)c3ccc(N4CCNCC4)c4ccnnc34)ncc2n1 [Compound 120]	> 10000	> 10000	> 10000	C (C represents 1000-9999 nM)
CNC1CCN(c2ccc(C(=O)Nc3cc(F)c4nc(C)cn4c3)c3nc(OCCOC)ccc23)C1 (centres unmarked) [Compound 234]	1000 to 10000	1000 to 10000	1000 to 10000	B (B represents 100-1000 nM)
CN[C@@H]1CCN(c2ccc(C(=O)Nc3cc(F)c4nc(C)cn4c3)c3nnccc23)C1 [Compound 238, (R)—N-(8-fluoro-2-methylimidazo[1,2-a]pyridin-6-yl)-5-(3-(methylamino)pyrrolidin-1-yl)cinnoline-8-carboxamide]	1000 to 10000	1000 to 10000	100 to 1000	B (B represents 100-1000 nM)
CN[C@H]1CCN(c2ccc(C(=O)Nc3cc(F)c4nc(C)cn4c3)c3nnccc23)C1 [Compound 239, (S)—N-(8-fluoro-2-methylimidazo[1,2-a]pyridin-6-yl)-5-(3-(methylamino)pyrrolidin-1-yl)cinnoline-8-carboxamide]	1000 to 10000	1000 to 10000	100 to 1000	B (B represents 100-1000 nM)
Cc1cn2cc(NC(=O)c3ccc(C4=CCNCC4)c4nccnc34)cc(F)c2n1 [Compound 240, N-{8-fluoro-2-methylimidazo[1,2-a]pyridin-6-yl}-8-(1,2,3,6-tetrahydropyridin-4-yl)quinoxaline-5-carboxamide]	< 100	100 to 1000	< 100	
Cc1cn2cc(NC(=O)c3ccc(N4CC[C@@H](N(C)C)C4)c4nccnc34)cc(F)c2n1 [Compound 242, 8-[(3R)-3-(dimethylamino)pyrrolidin-1-yl]-N-{8-fluoro-2-methylimidazo[1,2-a]pyridin-6-yl}quinoxaline-5-carboxamide]	> 10000	> 10000	> 10000	B (B represents 100-1000 nM)
COc1cnc2c(N3CC[C@@H](N(C)C)C3)ccc(C(=O)Nc3cc(F)c4nc(C)cn4c3)c2n1 [Compound 244, 8-[(3R)-3-(dimethylamino)pyrrolidin-1-yl]-N-{8-fluoro-2-methylimidazo[1,2-a]pyridin-6-yl}-3-methoxyquinoxaline-5-carboxamide]	100 to 1000	100 to 1000	100 to 1000	A (A represents <100 nM)
Cc1cn2cc(NC(=O)c3ccc([C@H]4CCNC4)c4nccnc34)cc(F)c2n1 [Compound 246]	1000 to 10000	1000 to 10000	1000 to 10000	B (B represents 100-1000 nM)
Cc1cn2cc(NC(=O)c3ccc(N4CCN[C@@H](C(C)C)C4)c4nccnc34)cc(F)c2n1 [Compound 250, N-{8-fluoro-2-methylimidazo[1,2-a]pyridin-6-yl}-8-[(3S)-3-isopropylpiperazin-1-yl]quinoxaline-5-carboxamide]	> 10000	> 10000	> 10000	B (B represents 100-1000 nM)
Cc1cn2cc(NC(=O)c3ccc(N4CCN[C@@H](C5CC5)C4)c4nccnc34)cc(F)c2n1 [Compound 252, 8-[(3S)-3-cyclopropylpiperazin-1-yl]-N-{8-fluoro-2-methylimidazo[1,2-a]pyridin-6-yl}quinoxaline-5-carboxamide]	> 10000	> 10000	1000 to 10000	B (B represents 100-1000 nM)
Cc1cn2cc(NC(=O)c3ccc(N4CCN[C@H](C5CC5)C4)c4nccnc34)cc(F)c2n1 [Compound 253, 8-[(3R)-3-cyclopropylpiperazin-1-yl]-N-{8-fluoro-2-methylimidazo[1,2-a]pyridin-6-yl}quinoxaline-5-carboxamide]	1000 to 10000	1000 to 10000	1000 to 10000	A (A represents <100 nM)
Cc1cn2cc(NC(=O)c3ccc(N4CCN5CCOC[C@@H]5C4)c4nccnc34)cc(F)c2n1 [Compound 255, (S)—N-(8-fluoro-2-methylimidazo[1,2-a]pyridin-6-yl)-8-(hexahydropyrazino[2,1-c][1,4]oxazin-8(1H)-yl)quinoxaline-5-carboxamide]	100 to 1000	100 to 1000	100 to 1000	B (B represents 100-1000 nM)
Cc1cn2cc(NC(=O)c3ccc(N4C5CNCC54)c4nccnc34)cc(F)c2n1 (centres unmarked) [Compound 262, 8-{3,6-diazabicyclo[3.1.0]hexan-6-yl}-N-{8-fluoro-2-methylimidazo[1,2-a]pyridin-6-yl}quinoxaline-5-carboxamide]	100 to 1000	100 to 1000	100 to 1000	
Cc1cn2cc(NC(=O)c3ccc(N4C[C@@H](C)N[C@@H](C)C4)c4ncc(O)nc34)cc(F)c2n1 [Compound 275]	> 10000	> 10000	> 10000	
Cc1cn2cc(NC(=O)c3ccc(N4C[C@@H](C)N[C@@H](C)C4)c4nccnc34)nc(Cl)c2n1 [Compound 279]	> 10000	> 10000	1000 to 10000	
COc1ncc2c(N3C[C@@H](C)N[C@@H](C)C3)ccc(C(=O)Nc3cc(F)c4nc(C)cn4c3)c2n1 [Compound 300]	100 to 1000	100 to 1000	100 to 1000	
Cc1cn2cc(NC(=O)c3ccc(N4C[C@@H](C)N[C@H](C)C4)c4nccnc34)cc(F)c2n1 [Compound 312]	1000 to 10000	1000 to 10000	1000 to 10000	
Cc1cn2cc(NC(=O)c3ccc(N4C[C@H](C)N[C@@H](C)C4)c4nccnc34)cc(F)c2n1 [Compound 313]	1000 to 10000	1000 to 10000	100 to 1000	
C[C@@H]1CN(c2ccc(C(=O)Nc3cc(F)c4nn(C)cc4c3)c3nccnc23)C[C@@H](C)N1 [Compound 335]	1000 to 10000	> 10000	1000 to 10000	
Cc1cn2cc(NC(=O)c3ccc(N4C[C@@H](C)N(O)[C@@H](C)C4)c4nccnc34)cc(F)c2n1 [Compound 355]	> 10000	1000 to 10000	1000 to 10000	
